One series concerns maize seedlings. The series is described as follows: Phenotype of inhibitor-treated maize seedlings. Particulars: 10 μM mevastatin, 100 μM fosmidomycin, 25 μM fluridone, 200 μM amitrole (21° C.), 0.1-1 mM naproxen, 1 mM sodium tungstate, 0.02-0.2 mM abscisic acid.
The subject of series [1] is carotenoid composition of shoots and roots of maize seedlings. The series can be described thus: Carotenoid analysis (HPLC) of shoots and roots of treated maize seedlings. It is filed as in vivo.
The subject of series [2] is Striga hermonthica seeds. The series is described as follows: Germination bioassay: S. hermonthica seeds with root exudates of treated host seedlings (maize, cowpea, sorghum). It is filed as in vivo. The conditions noted are these: for maize root exudate-induced S. hermonthica germination: maize W22 grown 5 days with 100 μM fosmidomycin or 10 μM mevastatin, control 42±2%.

The test system of series [3] is Striga hermonthica seeds. The series is classed as in vivo.
The test system of a further series is Orobanche crenata seeds. The series is classed as in vivo. Particulars: 10 μM fluridone, versus control, FIG. 3F.
[4] abbreviates: Roots of 10-day old maize seedlings, 10 μM fluridone, 1 mM naproxen, 0.1 mM sodium tungstate, 0.02 mM abscisic acid, n.d. = below detection limit.
The mark [5] stands for this setting: Shoots of 10-day old maize seedlings, 10 μM fluridone, 1 mM naproxen, 0.1 mM sodium tungstate, 0.02 mM abscisic acid, n.d. = below detection limit.
The mark [6] stands for this setting: maize shoots, versus control (Table 1).

Values joined by “and” are separate entries in the source; they are usually repeats but may differ in a detail not shown here. Identical values can stand only once. “Also recorded” adds a separate entry of the source.

For `CC1=CC(=O)CC(C)(C)C1(O)/C=C/C(C)=C\C(=O)O` (racemic) [abscisic acid, (±)-abscisic acid], the “morphology / appearance of treated seedlings” value (“morphology / appearance” below) in the series on maize seedlings was “slightly thicker and more brittle”. Further, in series [1] (setting [4]), the “violaxanthin, carotenoid content” value was 0.07 μg · g^−1 fwt and the “β-carotene, carotenoid content” value is 0.01 μg · g^−1 fwt. In series [1] (setting [5]), the “lutein, carotenoid content” value is given as 73.01 μg · g^−1 fwt; the “neoxanthin, carotenoid content” value came to 115.29 μg · g^−1 fwt; the “violaxanthin, carotenoid content” value is reported as 50.84 μg · g^−1 fwt; the “β-carotene, carotenoid content” value was found to be 47.35 μg · g^−1 fwt. The “β-carotene concentration lower than in control roots” value in series [1] (abscisic acid treated maize roots (0.02 mM, Table 1)) is 50% and ~65%. The “carotenoid accumulation in shoots (β-carotene, violaxanthin, neoxanthin, lutein)” value (“carotenoid accumulation in shoots” for short) in series [1] (setting [6]) is on record as “decreased accumulation”. Besides, the “germination of S. hermonthica induced by root exudates of treated maize” value (“germination … of treated maize” below) in the series with Striga hermonthica seeds [2] (0.02 or 0.2 mM abscisic acid, without/with 10 μM fluridone, FIG. 3D) is recorded as “very low germination; also recorded: strongly reduced”.
On to `CC1=C[C@H](O/C=C2/C(=O)O[C@@H]3c4ccccc4C[C@H]23)OC1=O` [GR24], for which, in the series with Striga hermonthica seeds [2] (suboptimal concentration of GR24 (0.01 mg.L^−1, FIG. 3E)), the “germination of S. hermonthica induced by GR24 alone” value was 48±1%.
Turning to `Nc1nc[nH]n1` [amitrole, 3-amino-1,2,4-triazole], the “morphology / appearance” value in the series with maize seedlings is “yellow-green phenotype”. Further, the “germination … of treated maize” value in the series on Striga hermonthica seeds [2] (maize Dent, 200 μM amitrole, grown at 21° C., versus control, FIG. 3C) was “lower germination”.
On to `O=CN(O)CCCP(=O)(O)O` [fosmidomycin], for which the “morphology / appearance” value with maize seedlings is on record as “slightly pale-yellow leaves”. For the same compound, the “maize root exudate-induced S. hermonthica germination” value with Striga hermonthica seeds [2] (FIG. 3A) is on record as 37±2%.
With `CC[C@H](C)C(=O)O[C@H]1CCC=C2C=C[C@H](C)[C@H](CC[C@@H]3C[C@@H](O)CC(=O)O3)[C@H]21` [mevastatin], the “maize root exudate-induced S. hermonthica germination” value with Striga hermonthica seeds [2] (FIG. 3A) is reported as 33±3%.
On to `COc1ccc2cc([C@H](C)C(=O)[O-])ccc2c1.[Na+]` [naproxen, (S)-6-methoxy-α-methyl-2-naphthaleneacetic acid sodium salt], for which, in series [1] (in vivo), the “carotenoid accumulation in shoots” value is “decreased accumulation”; the “concentration of violaxanthin higher than in control roots” value is “about 3 fold”; the “concentration of β-carotene higher than in control roots” value turned out to be 2 fold; the “lutein, carotenoid content” value is on record as 68.58 μg · g^−1 fwt. Further, the “neoxanthin, carotenoid content” value in series [1] (in vivo) was 111.81 μg · g^−1 fwt. For the same compound, the “germination of S. hermonthica seeds” value with Striga hermonthica seeds [2] (in vivo, sodium salt) is 20±1% and 15±2%.
Regarding `[Na+].[Na+].[O]=[W](=[O])([O-])[O-]` [sodium tungstate], in series [1] (setting [4]), the “violaxanthin, carotenoid content” value is 0.22 μg · g^−1 fwt and the “β-carotene, carotenoid content” value stood at 0.03 μg · g^−1 fwt. Further, in series [1] (setting [5]), the “lutein, carotenoid content” value stood at 83.94 μg · g^−1 fwt; the “neoxanthin, carotenoid content” value amounted to 147.58 μg · g^−1 fwt; the “violaxanthin, carotenoid content” value came to 72.19 μg · g^−1 fwt; the “β-carotene, carotenoid content” value was 64.29 μg · g^−1 fwt. For the same compound, the “concentration of violaxanthin higher than in control roots” value in series [1] (maize roots, 1 mM naproxen, 0.1 mM sodium tungstate (Table 1)) is recorded as 2 fold. Also, in series [1] (setting [6]), the “carotenoid accumulation in shoots” value is given as “did not affect carotenoid accumulation”. Further, in the series on Striga hermonthica seeds [2] (maize Dent, 0.1 mM and 1 mM sodium tungstate, FIG. 3D), the “effect on root exudate induced S. hermonthica germination” value is recorded as “did not affect germination; also recorded: did not have an effect”.
For fluridone, the “effect on the attachment phase of Striga” value in the series on Striga hermonthica seeds [3] (control experiments with GR24 inducing full germination (data not shown)) is given as “not affecting the attachment phase”. For the same compound, the “number of germinated/attached seeds/tubercles of Striga” value in the series on Striga hermonthica seeds [3] (rice, fluridone sprayed to the leaves on 3 consecutive days, even at 0.001 and 0.01 μM, FIG. 7B) was “strong, significant reduction”. Moreover, the “number of germinated/attached Striga seeds” value in the series on Striga hermonthica seeds [3] (rice, irrigation once with 100 mL of 0.1 μM fluridone, scored after 6 weeks, FIG. 7A) is given as “significantly reduced”. Besides, in series [1] (fluridone treated maize roots), the “phytoene in treated roots” value is “phytoene accumulated”. In addition, the “phytoene in treated shoots” value in series [1] (shoot of fluridone treated maize plants) is listed as “phytoene accumulated”. In addition, the “germination … of treated maize” value was “negligible” in the series on Striga hermonthica seeds [2] (10 μM fluridone, dim light, FIG. 3B) and “virtually no germination” with Striga hermonthica seeds [2] (10 μM fluridone, normal light, control 13±1%, FIG. 3B). Further, in the series with Striga hermonthica seeds [2] (10 μM fluridone-treated cowpea exudate plus 0.01 mg.L^−1 GR24, FIG. 3E), the “germination of S. hermonthica induced by fluridone-treated cowpea root exudates with GR24” value is 53±3%. Further, the “germination of S. hermonthica seeds induced by cowpea root exudates” value with Striga hermonthica seeds [2] (cowpea watered with 10 μM fluridone for 5 days, non-treated 49±2%, FIG. 3E) is 11±3%. Further, the “germination induced by root exudates lower than for control maize” value in the series on Striga hermonthica seeds [2] (maize W22, 25 μM fluridone, 5 days, FIG. 3A) is listed as “about 80%”. For the same compound, the “sorghum root exudate induced S. hermonthica germination” value in the series on Striga hermonthica seeds [2] (sorghum, 4 μM fluridone, FIG. 3G) is given as “completely blocked”. In the series on Orobanche crenata seeds, the “germination of O. crenata seeds with fluridone-treated cowpea root exudate” value is listed as “lower than that induced by the control; also recorded: decreased this germination by about the same percentage as for S. hermonthica”.

These data come from patent US20090178158A1, “RESISTANCE AGAINST PARASITIC WEEDS” (Plant Research International B.V., priority 2005, published 2009).
